Key:
Type in all cases: in vivo
[1] = tested on: winter wheat (Vershin variety); assay: Winter wheat seed treatment with BHMPA salts: germination energy and germination rate; conditions: winter wheat; comparative study vs Melaphen; 1·10^−7% solution
Procedure: (§1) Control—Soaking Seeds in Water;
(§2) Experimental versions—soaking seeds in BHMPA solutions and solutions of BHMPA Ca, Mg, Na, Co, Mn, Cu, and Zn salts at 1·10^−6-1·10^−12% concentrations (doses). The studies were conducted in laboratory in Petri dishes; seed bed—two layers of filter paper. 50 seeds soaked in water (control) and in the solutions of the tested compounds (experimental) were placed into each dish. Wheat, corn, and rice seeds were exposed for one hour.
(§3) Analysis was conducted according to the government standards GOST 12038-84 “Crop seeds. Technical conditions for determining the germination energy and germination rate”, GOST 12044-93 “Crop seeds. Methods for determining disease contamination.”
(§4) Seed germination energy and rate were calculated in percent as an arithmetic mean of the four experimental results (germination energy on the 4th day, wheat germination on the 8th day, rice and corn germination—on the 7th day). Germination was determined based on the germinating power indicators (length of the roots and sprouts and their wet and dry mass per 100 shoots).
(§5) The effect of pre-sowing seed treatment with the claimed BHMPA salts of biogenic metals was studied on winter wheat (Vershin variety), corn (Krasnodar 385 MV variety), and rice (Diamant variety).

rice (Diamant variety) [2] = assay: Rice seed treatment with BHMPA salts: germinating power; conditions: rice seed treatment, comparison with Melaphen (Table XXXIII), solution 1 · 10^−8%
Procedure: as §2, §4, §5
(§6) The above data describe the seed viability only at the initial stage of germination, while the germination ability at the later stage of germination is defined by the initial germinating power. The method for the determination of the germinating power comprises measuring the height of the sprouts and primary roots, as well as the biomass and the dry mass thereof per 100 seedlings. [M. A. Kartuzova. Initial Germinating Power as Method of Biological Assessment of Seed Quality. Selection and Seed Farming, #2, 1953].

[3] = tested on: corn (Krasnodar 385 MV variety); assay: Corn seed treatment with BHMPA salts: germination energy and germination rate; conditions: comparative study vs Melaphen, 1·10^−7% solution
Procedure: as §1, §2, §3, §4, §5

[4] = tested on: winter wheat (Vershin variety); assay: Winter wheat seed treatment with BHMPA salts: germinating power (length and mass of roots and sprouts); conditions: comparative study, 1·10^−7% solution
Procedure: as §2, §4, §5, §6

[5] = tested on: spring wheat (Ekada-66 variety); assay: Spring wheat seed treatment: germination rate and plant height (laboratory, Petri dishes); conditions: spring wheat
Procedure: as §1, §2, §3, §4
The study of the effect of pre-sowing seed treatment with BHMPA was conducted on winter wheat (Kazan-500 variety) and spring wheat (Ekada-66 variety).

[6] = tested on: winter wheat (Kazan 560 variety); assay: Field study: winter wheat seed treatment and spraying, yield and quality of the grain; conditions: for Field germination, % / Grain mass from the main ear / Number of grains in an ear / Viability, % / Yield, dt/ha: winter wheat
Procedure: Field studies were conducted for the BHMPA Mg-salt. The effect of treatment winter wheat seeds (Kazan 560 variety) with BHMPA Mg-salt solutions on the yield and quality of the grain was examined. The field experiment was conducted at a branch of a fallow rotation. The seeds were sowed on Sep. 1, 2015, in an area covering 1.7 hectares of the experimental field located at the experimental base of Tatarstan Research Institute of Agriculture. For comparison, the seeds were treated with the BHMPA Mg-salt solution and the known growth-regulator Melaphen at the same concentrations, optimum for Melaphen.
The experiment was conducted for the following variants: • 1. Control (no seed treatment); • 2. Seed treatment with the BHMPA Mg-salt solution at a 1·10^−7% concentration; • 3. Seed treatment with the BHMPA Mg-salt solution at a 1·10^−7% concentration+spraying with the BHMPA Mg-salt solution at a 1·10^−8% concentration upon vegetation during spring tillering and earing phases; • 4. Seed treatment with the growth regulator Melaphen at a 1·10^−7% concentration; • 5. Seed treatment with Melaphen at a 1·10^−7% concentration and spraying with Melaphen at a 1·10^−8% concentration upon vegetation during spring tillering and earing phases.
The seeds were treated with the experimental compounds together with a seed disinfectant at a rate of 10 ml/T. The vegetating plants were treated at a rate of 5 ml/ha. Identical field operations appropriate for that zone as well as plant protection measures against weeds and disease, were applied in all cases.
Results of field experiments with BHMPA Mg-salt as the main growth-regulating component of said pre-sowing seed treatment combined with additional treatment of winter wheat plants with other claimed BHMPA salts, are presented in Table XXXV.

rice (Diamant variety) [7] = assay: Rice seed treatment with BHMPA salts: germination energy and germination rate
Procedure: as §1, §2, §3, §4, §5

[8] = tested on: corn (Krasnodar 385 MV variety); assay: Corn seed treatment with BHMPA salts: germinating power; conditions: corn seeds; solution concentration 1 · 10^−7%
Procedure: as §2, §4, §5, §6

[9] = seed treatment 1 · 10^−7% + spraying plants with the same substance 1 · 10^−8%
[10] = rice seed treatment, solution 1 · 10^−8%
[11] = rice, comparative study vs Melaphen, 1·10^−8% solution

## Nc1nc(N)nc(N)n1.O=P(O)(CO)CO [Melaphen, melamine salt of BHMPA, reference compound]
[1]
  Germination energy: 95.0%
  Germination rate: 98.3%
Rice (Diamant variety) [2]
  Length, root: 7.6 cm
  Length, root, + % to control: 58%
  Length, sprout: 4.9 cm
  Length, sprout, + % to control: 88%
  Mass, dry, root: 0.29 g/100 plantlings
  Mass, dry, root, + % to control: 38%
  Mass, dry, sprout: 0.35 g/100 plantlings
  Mass, dry, sprout, + % to control: 40%
  Mass, wet, root: 1.57 g/100 plantlings
  Mass, wet, root, + % to control: 60%
  Mass, wet, sprout: 2.62 g/100 plantlings
  Mass, wet, sprout, + % to control: 73.5%
[3]
  Germination energy: 90.7%
  Germination rate: 97.7%
[4]
  Length, root: 10.3 cm
  Length, root, + % to control: 18%
  Length, sprout: 7.3 cm
  Length, sprout, + % to control: 18%
  Mass, dry, root: 0.72 g/100 plantlings
  Mass, dry, root, + % to control: 16%
  Mass, dry, sprout: 0.59 g/100 plantlings
  Mass, dry, sprout, + % to control: 16%
  Mass, wet, root: 6.02 g/100 plantlings
  Mass, wet, root, + % to control: 66%
  Mass, wet, sprout: 5.27 g/100 plantlings
  Mass, wet, sprout, + % to control: 33%
[5]; 1·10^−7% solution
  Germination rate % 4th day: 54.0%
  Germination rate % 8th day: 82.0%
  Plant height: 14.8 cm
[5]; 1·10^−9% solution
  Germination rate % 4th day: 52.0%
  Germination rate % 8th day: 81.0%
  Plant height: 14.5 cm
[6]; field, seeds treated at 1·10^−7% and plants sprayed with 1·10^−8%, control 21.7 dt/ha
  yield of winter wheat: 29.3 dt/ha
[6]; seed treatment 1 · 10^−7%
  Field germination, %: 71%
  Grain mass from the main ear: 1.0 g
  Number of grains in an ear: 27
  Viability, %: 74%
  Yield, dt/ha: 28.0 dt/ha
[6]; [9]
  Field germination, %: 71%
  Grain mass from the main ear: 1.2 g
  Number of grains in an ear: 30
  Viability, %: 62%
  Yield, dt/ha: 29.3 dt/ha
Rice (Diamant variety) [7]; [10]
  Germination energy, %: 89.5%
  Germination rate, %: 96.3%
Rice (Diamant variety) [7]; [11]
  Germination energy: 89.5%
  Germination rate: 96.3%
[8]
  Length, root: 8.4 cm
  Length, root, + % to control: 42%
  Length, sprout: 4.3 cm
  Length, sprout, + % to control: 59%
  Mass, dry, root: 2.42 g/100 plantlings
  Mass, dry, root, + % to control: 37.5%
  Mass, dry, sprout: 1.86 g/100 plantlings
  Mass, dry, sprout, + % to control: 37%
  Mass, wet, root: 12.02 g/100 plantlings
  Mass, wet, root, + % to control: 37%
  Mass, wet, sprout: 10.23 g/100 plantlings
  Mass, wet, sprout, + % to control: 44%
